Source: patent US9936701B2, “Herbicidal compounds” (Syngenta Participations AG, priority 2013, dated 2018)

Experiments:
[1] = tested on: a variety of test species; test: Pre-emergence herbicidal activity (glasshouse, sprayed one day after sowing, evaluated after 13 days); assay type: in vivo; design: key: 5=total damage to plant; 0=no damage to plant; details: application pre-emergence, rate 1000 g/Ha, scale 0-5
Summary of the method: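 Damage was rated 13 days after treatment on a 0–5 scale (0 = no damage, 5 = total damage). Pots of seeds in standard soil were sprayed one day after sowing with an aqueous solution from an acetone/water (50:50), 0.5% Tween 20 formulation and kept at 24/16 °C day/night.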

[2] = tested on: a variety of test species; test: Post-emergence herbicidal activity (glasshouse, sprayed after 8 days cultivation, evaluated after 13 days); assay type: in vivo; design: key: 5=total damage to plant; 0=no damage to plant; details: rate 1000 g/Ha, scale 0-5
Summary of the method: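 Damage was rated 0-5 (5 = total) 13 days after a post-emergence spray of acetone/water (50:50) plus 0.5% Tween 20 formulation. Plants were sprayed at 8 days' growth and kept at 24/16° C, 14 h light, 65% humidity, watered twice daily.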

Compound | Pre-emergence herbicidal damage score, ABUTH [1] | Pre-emergence herbicidal damage score, ALOMY [1] | Pre-emergence herbicidal damage score, AMARE [1] | Pre-emergence herbicidal damage score, ECHCG [1] | Pre-emergence herbicidal damage score, SETFA [1] | Pre-emergence herbicidal damage score, ZEAMX [1] | ABUTH (Abutilon theophrasti) damage score, application post-emergence [2] | ALOMY (Alopecurus myosuroides) damage score, application post-emergence [2] | AMARE (Amaranthus retroflexus) damage score, application post-emergence [2] | ECHCG (Echinochloa crus-galli) damage score, application post-emergence [2] | SETFA (Setaria faberi) damage score, application post-emergence [2] | ZEAMX (Zea mays) damage score, application post-emergence [2] | melting point [°C]
CC1=C(Cl)C(=O)N(c2cc(C(C)(C)C)on2)C1O (stereo not shown) [A2, 1-(5-tert-butylisoxazol-3-yl)-4-chloro-2-hydroxy-3-methyl-2H-pyrrol-5-one] | 5 | 3 | 5 | 5 | 5 | 3 | 5 | 5 | 5 | 5 | 5 | 5 | 156 to 158
CC1=C(Cl)C(=O)N(c2cc(C(C)C)on2)C1O (stereo not shown) [A11] | 5 | 4 | 5 | 5 | 5 | 2 | 5 | 5 | 5 | 5 | 5 | 5 | 126 to 128
CC1=C(Cl)C(=O)N(c2cc(CC(C)C)on2)C1O (stereo not shown) [A12] | 5 | 4 | 4 | 5 | 5 | 1 | 5 | 5 | 5 | 5 | 5 | 4 | 138 to 140
CC1=C(Cl)C(=O)N(c2noc(C(C)(C)C)c2F)C1O (stereo not shown) [A19, 1-(5-tert-butyl-4-fluoro-isoxazol-3-yl)-4-chloro-2-hydroxy-3-methyl-2H-pyrrol-5-one] | – | 4 | 5 | 5 | 5 | – | – | 5 | 5 | 5 | 5 | – | 98 to 100
CC1=C(Cl)C(=O)N(c2noc(C(C)(C)C)c2C)C1O (stereo not shown) [A20, 1-(5-tert-butyl-4-methyl-isoxazol-3-yl)-4-chloro-2-hydroxy-3-methyl-2H-pyrrol-5-one] | – | 4 | 1 | 5 | 5 | – | – | 5 | 4 | 5 | 5 | – | 134 to 136
CC1=C(Cl)C(=O)N(c2cc(C3CCC3)on2)C1O (stereo not shown) [A21] | – | 3 | 5 | 5 | 3 | – | – | 5 | 5 | 5 | 5 | – | 130 to 132
CC1=C(Cl)C(=O)N(c2cc(C(C)(C)C(N)=O)on2)C1O (stereo not shown) [A67, 2-[3-(4-chloro-2-hydroxy-3-methyl-5-oxo-2H-pyrrol-1-yl)isoxazol-5-yl]-2-methyl-propanamide] | – | – | – | – | – | – | – | – | – | – | – | – | 169 to 171
COC1=C(OC)C(O)N(c2cc(C(C)(C)C)on2)C1=O (stereo not shown) [F1] | 5 | 3 | 5 | 4 | 4 | 2 | 5 | 4 | 5 | 5 | 5 | 5 | –
COC1=C(C)C(=O)N(c2cc(C(C)(C)C)on2)C1O (stereo not shown) [G1] | 5 | 3 | 5 | 5 | 4 | 1 | 5 | 5 | 5 | 5 | 5 | 5 | –
COC1=C(C)C(=O)N(c2cc(C)on2)C1O (stereo not shown) [G2] | 5 | 1 | 5 | 3 | 3 | 1 | 3 | 2 | 5 | 2 | 1 | 1 | –
COCC(C)(C)c1cc(N2C(=O)C(C)=C(OC)C2O)no1 (stereo not shown) [G3] | 5 | 3 | 5 | 5 | 5 | 4 | 5 | 4 | 3 | 5 | 5 | 5 | –
COC1=C(C)C(=O)N(c2noc(C(C)(C)C)c2C#N)C1O (stereo not shown) [G7] | 5 | 4 | 5 | 5 | 5 | 4 | 5 | 5 | 5 | 5 | 5 | 5 | –
